# Measurements as given in patent US7071158B2, “Antioxidant enhancement of therapy for hyperproliferative conditions” (Atherogenics, Inc., priority 1997, dated 2006).
# B1: I2: a selective PP1 inhibitor (protein, UniProt P41236 2-205, looked up)
# Protein phosphatase inhibitor …: AASTASHRPIKGILKNKTSTTSSMVASAEQPRGNVDEELSKKSQKWDEMNILATYHPADKDYGLMKIDEPSTPYHSMMGDDEDACSDTEATEAMAPDILARKLAAAEGLEPKYRIQEQESSGEEDSDLSPEEREKKRQFEMKRKLHYNEGLNIKLARQLISKDLHDDDEDEEMLETADGESMNTEESNQGSTPSDQQQNKLRSS
# Experiments:
# [1] = tested on: HCT 15 cells; test: Apoptotic index (TUNEL) with or without induced C/EBPβ overexpression; assay type: cell-based, human; details: 5-FU 1.5 μM or doxorubicin 0.1 μM, 24 hours
# Description: Control HCT 15 cells and the sense C/EBPβ cell line were induced with 10 μM muristerone A and exposed to either 5-FU (1.5 μM) or doxorubicin (0.1 μM) for 24 hours. The apoptotic index was calculated as described in FIG. 4C.
# Finally, the functional role of C/EBPβ was examined in the apoptotic signaling pathway by generating lines of HCT 15 cells that were stably transfected with the human C/EBPβ cDNA, in both the sense and antisense orientation, under the control of an ecdysone inducible promoter. To avoid the possibility that constitutively expressed C/EBPβ might induce cell death, and ecdysone (muristerone A)-inducible expression system (Invitrogen, Carlsbad, Calif.) was used. Human C/EBPβ cDNA was subcloned into pIND at convenient enzyme cleavage ites. Constructs, containing sense and antisense C/EBPβ sequences were verified by double-stranded DNA sequencing. Before transfection, pIND-C/EBPβ constructs were linearized with Pme I and purified. HCT 15 cells were transfected with 5 μg of pVgRXR (Invitrogen) and 10 μg of pIND-C/EBPβ using CELLFECTIN according to manufacture's instructions. After 24 hours, cells were shifted to medium supplemented with 1 mg/ml Geneticin and […] puromycin (GIBCO BRL) to select for transfectant clones. After 2 weeks, antibiotic-resistant cells were subcloned by limiting dilution. The expression of C/EBPβ protein and the subsequent induction of p21^WAF1/CIP1 was determined following induction with 10 μM muristerone A for 24 hours and Western blot analysis.
# [2] = tested on: rats; details: intravenously; cited from earlier work
# [3] = tested on: HCT 116 CRC cells; test: Flow cytometric cell cycle analysis (propidium iodide); assay type: cell-based, human; details: HCT 116, pyrrolidinedithiocarbamate 70 μM or vitamin E 3 mM, 24 hours
# Description: (§1) FIG. 1B is a series of flow cytometric analyses that indicate that antioxidants induce G1 cell cycle arrest and apoptosis in CRC cells. […] Twenty-four hours following antioxidant exposure, cells were harvested and flow cytometric analysis performed.
# (§2) DNA Content of nuclei was determined as described [I. G. Nicoletti et al., J Immunol. Methods. 139, 271 (1991)] by lysing plasma membranes, staining nuclear DNA with propidium iodide ([…]), and quantitating the relative DNA content of nuclei using the Becton Dickinson FACSORT fluorescence-activated cell sorter. The proportion of nuclei in each phase of the cell cycle was determined using MODFIT-DNA analysis software. Detection of apoptotic cells either by fluorescence microscopy or by flow cytometry was performed using the ApopTag Plus In Situ Apoptosis Detection Kit (Oncor, Gaithersburg, Md.) as described in the manufacturer's protocol. Briefly, gigoxygenin-labeled nucleotides were added to free 3′OH groups of DNA produced by DNA fragmentation during apoptosis by terminal deoxynucleotidyl transferase (TdT). Digoxygenin was detected by a FTC-conjugated anti-digoxygenin antibody. Analysis was carried out using the fluorescence-activated cell sorter and FITC staining visualized using a fluorescence microscope (Zeiss). […]
# [4] = tested on: HCT 15 CRC cells; test: as above; assay type: cell-based, human; details: HCT 15, pyrrolidinedithiocarbamate 70 μM or vitamin E 3 mM, 24 hours
# Description: as §1, §2
# [5] = tested on: HCT 116 CRC tumor xenografts; test: HCT 116 tumor xenografts in athymic mice; assay type: in vivo; details: for tumor volume compared to saline-treated controls: single agents, 6 weeks
# Description: HCT 116 CRC cells were injected subcutaneously between the scapula of nu/nu mice. Once tumors reached approximately 150 mm^3, the animals either received weekly i.p. injections of pyrrolidinedithiocarbamate (70 μM) or vitamin E (3 MM), 5-FU (40 mg/kg) or saline, or both an antioxidant and 5-FU. Tumor volume was calculated weekly.
# (§5) Male athymic Balb/c nu/nu mice were obtained from the Harlan Sprague-Dawley Company at 4–6 weeks of age and were quarantined for at least 2 weeks before the study. […] HCT 116 and HCT 15 CRC cell lines were grown in DMEM supplemented with 10% FBS as described above. Cells were harvested through two consecutive trypsinizations, centrifuged at 300 g for 5 minutes, washed twice, and resuspended in sterile phosphate buffered saline. One ×10^6 cells in 0.2 ml were injected subcutaneously between the scapula of 7- to 10-week-old male nude mice.
# (§6) Tumor volumes were estimated weekly by measuring the maximal length, width, and height. Once tumors reached a mean size of 120 to 150 mm^3, animals received either weekly i.p. injections of pyrrolidinedithiocarbamate (70 μM) or vitamin E (3 mM), 5-FU (40 mg/kg) or saline, or a combination of pyrrolidinedithiocarbamate or vitamin E and 5-FU or 6 weeks. In cross-over experiments, animals received the above treatments for three weeks (with the exception of vitamin E), and then were crossed-over to either the combination treatment of pyrrolidinedithiocarbamate and 5-FU (saline, pyrrolidinedithiocarbamate or 5-FU alone) or discontinued treatment pyrrolidinedithiocarbamate and 5-FU) for the remaining three weeks of the experiment. […] Tumor volumes were recorded weekly until termination of the study.
# Tumor tissues were fixed overnight in 4% (v/v) paraformaldehyde and embedded in paraffin according to standard histological procedures. […] TdT labeling of fragmented DNA (TUNEL) was performed as described. The proliferative index (BrDU) and the apoptotic index (TUNEL) were estimated by the percentage of cells scored under a microscope at 200-fold magnification.
# [6] = tested on: CRC cell; test: CRC cell plating efficiency; assay type: cell-based, human; details: 25–200 μM (pyrrolidinedithiocarbamate) and 0.1–10 mM (vitamin E), preliminary studies
# [7] = tested on: HCT 15 cells; test: Soft-agar colony formation (anchorage-independent growth)
# Description: (§3) FIG. 1A is a graph of the concentration of PDTC versus soft-agar forming units×10^6 HCT 15 and HCT 116 cells (as a percent of control). […] Soft-agar colony formation was measured by seeding HCT 116 or HCT 15 cells in soft agar supplemented with either medium alone (control), or increasing concentrations of pyrrolidinedithiocarbamate (25–200 μM) or vitamin E (0.1–10 mM). Colonies were scored at the end of 10 days incubation at 37° C. Values are representative of three experiments carried out in quadruplicate.
# (§4) HCT 116 and HCT 15 cells were seeded in soft agar as described above containing increasing concentrations of either 5-FU (5×10^−8 to 5×10^−5 M) or doxorubicin (1×10^−9 to 1×10^−6 M), in the presence or absence of pyrrolidinedithiocarbamate (70 μM) or vitamin E (3 mM). Colonies were scored after 10 days and IC50 values were calculated as the concentration of 5-FU or doxorubicin required to reduce basal colony formation by 50% (±s.e.m.). Values are representative of three experiments carried out in quadruplicate.
# [8] = tested on: HCT 116 cells; test: as above
# Description: as §3, §4
# [9] = tested on: HCT 15-derived tumors; test: HCT 15 tumor xenografts in athymic mice; assay type: in vivo
# Description: HCT 15-derived tumors were generated as described above. Animals were then treated with pyrrolidinedithiocarbamate, in the presence or absence of 5-FU, for 3 weeks. At this point, treatments were discontinued in animals receiving the combined treatment of pyrrolidinedithiocarbamate and 5-FU for 2 months. All other treatment groups received both 5-FU and pyrrolidinedithiocarbamate for the remaining 3 weeks.
# as §5, §6
# Tumor tissues were fixed overnight in 4% (v/v) paraformaldehyde and embedded in paraffin according to standard histological procedures. […] The proliferative index (BrDU) and the apoptotic index (TUNEL) were estimated by the percentage of cells scored under a microscope at 200-fold magnification.
# [10] = tested on: endogenous H2O2; test: Intracellular H2O2 levels by flow cytometry with dihydrorhodamine; assay type: cell-based, human; details: up to 24 hours
# Description: FIG. 1C is a bar graph of the hours after test compound treatment versus intracellular H2O2 levels. FIG. 1C illustrates the negative association between intracellular redox status and cell cycle perturbations. Changes in the intracellular redox status were determined by the measurement of endogenous H2O2 levels. Background fluorescence was subtracted from each reading. Values are expressed as corrected DHR mean per 10^4 cells±s.e.m. The percentage of G1 (circle) or apoptotic (TUNEL-positive: square) cells by flow cytometric analysis.
# HCT 15 cells were incubated with pyrrolidinedithiocarbamate (70 μM), vitamin E (3 mM), N-acetylcysteine (50 μM) or vitamin C (200 μM) for 24 hours. Endogenous H2O2 levels and cell cycle changes were measured as described in FIG. 1C. […] Values from cells transfected with the empty plasmid were subtracted from those obtained from the catalase-containing cells and were expressed as mean±s.e.m. from duplicate dishes.
# Intracellular H2O2 levels were analyzed by flow cytometry using […] (DHR) as a specific fluorescent dye probe [G. Rothe, A. Emmendorffer, A. Oser, J. Roesler, G. Valet, J Immun. […] Cellular rhodamine 123 fluorescence intensity of 1×10^4 cells was measured for each sample using a Becton-Dickenson FACS Vantage flow cytometer with the excitation source at 488 nm and emission wave length of 580 nm. […]
# [11] = tested on: advanced, frequently mutant p53-containing colorectal cancer tumors; details: patients with advanced; cited from earlier work
# [12] = tested on: PP2A; test: Dephosphorylation of radiolabeled C/EBPβ in DKO-1 lysates; assay type: biochemical, human; details: DKO-1 cell lysates (cells treated with 17 μM PDTC for three hours), ten minutes at 37 degrees C
# Description: FIG. 13 is a graph of time in hours versus percent radioactivity remaining on the protein substrate. […] The activity of PDTC is compared to I2 (a selective PP1 inhibitor), okadaic acid (an inhibitor of both PP2A and PP1), I2 and PDTC, and okadaic acid and PDTC. DKO-1 cells were grown in the presence of PDTC (test) or not (control). The cells were lysed, and then radioactive phosphorylated C/EBPβ was added. The test compounds were then added, and incubated with the lysate. The protein was collected and the amount of radioactive phosphate remaining in the protein measured.
# Cell lysates were prepared and treated with the following reagents in the presence of phosphorylated C/EBPβ in which the phosphate is radiolabeled, for ten minutes at 37 degrees C: I2 (a selective PP1 inhibitor), okadaic acid (a selective inhibitor of PP2A and PP1), PDTC, I2 and PDTC, and okadaic acid and PDTC. […] This effect is reversible following removal of the antioxidant.
# [13] = HCT 15 cells induced to overexpress C/EBPβ
# [14] = HCT 15 cells, absence of C/EBPβ overexpression
# [15] = HCT 116 xenografts, weekly i.p. injections
molecule,measurement,setting,value
COc1cccc2c1C(=O)c1c(O)c3c(c(O)c1C2=O)C[C@@](O)(C(=O)CO)C[C@@H]3O[C@H]1C[C@H](N)[C@H](O)[C@H](C)O1 [doxorubicin],apoptotic index,[1]; [13],80%
same,apoptotic index,[1]; [14],did not induce apoptosis
"CC(=O)N[C@@H](CS)C(=O)O [N-acetylcysteine, acetamido-mercaptopropionic acid]",LD50,[2],1140 mg/kg
"Cc1c(C)c2c(c(C)c1O)CCC(C)(C(=O)O)O2 (stereo not shown) [6-hydroxy-2.5,7,8-tetramethylchroman-2-carboxylic acid]",accumulation of cells in the G1 peak,[3],induced a significant accumulation of cells in the G1 peak
same,accumulation of cells in the G1 peak,[4],induced a significant accumulation of cells in the G1 peak
same,increase of apoptotic index (TUNEL) of residual tumors,[5]; HCT 116 xenograft model,approximately 5 fold
same,effect of adding the antioxidant to 5-FU on tumor volume,"[5]; HCT 116 xenografts, weekly i.p. injections, combined with 5-FU (40 mg/kg)",significantly enhanced the effect of 5-FU
same,tumor volume compared to saline-treated controls,[5]; [15],significantly reduced tumor volume
same,CRC cell plating efficiency,[6],no significant effect on CRC cell plating efficiency
same,effect on the IC50 of 5-FU and doxorubicin,[7],decreased the IC50 for both 5-FU and doxorubicin
same,anchorage-independent growth,"[7]; HCT 15 cells, increasing amounts (25–200 μM pyrrolidinedithiocarbamate, 0.1–10 mM vitamin E)",dose-dependent reduction in anchorage-independent growth
same,IC50,"[7]; read-out: approximate IC50 in soft agar, HCT 15 cells, soft agar, 10 days",~3000 µM
same,effect on the IC50 of 5-FU and doxorubicin,[8],decreased the IC50 for both 5-FU and doxorubicin
same,anchorage-independent growth,"[8]; HCT 116 cells, increasing amounts (25–200 μM pyrrolidinedithiocarbamate, 0.1–10 mM vitamin E)",dose-dependent reduction in anchorage-independent growth
same,IC50,"[8]; read-out: approximate IC50 in soft agar, HCT 116 cells, soft agar, 10 days",~3000 µM
same,increase of apoptotic index (TUNEL) of residual tumors,[9]; HCT 15 xenograft model,approximately 5 fold
same,endogenous H2O2 levels,"[10]; HCT 15 cells, N-acetylcysteine 50 μM, vitamin C 200 μM",significantly reduced endogenous H2O2 levels
same,endogenous H2O2 levels,[10]; HCT 116 cells,significantly reduced endogenous H2O2 levels
"O=c1[nH]cc(F)c(=O)[nH]1 [5-FU, 5-fluorouracil]",apoptotic index,[1]; [13],70%
same,apoptotic index,[1]; [14],20%
same,success rate,[11],15–20%
same,tumor volume compared to saline-treated controls,[5]; [15],significantly reduced tumor volume
same,tumor size,"[9]; HCT 15-derived tumors, after 3 weeks of single agent treatment, before cross-over",1864+190 mm^3
"C=C1[C@@H](O)[C@@H]2O[C@]3(CC[C@H](/C=C/[C@@H](C)[C@@H]4CC(C)=C[C@@]5(O[C@H](C[C@@](C)(O)C(=O)O)CC[C@H]5O)O4)O3)CC[C@H]2O[C@@H]1[C@@H](O)C[C@H](C)[C@H]1O[C@@]2(CCCCO2)CC[C@H]1C [okadaic acid, reference compound]",phosphatase activity toward phosphorylated C/EBPβ,[12],inhibited all DKO-1 phosphatase activity
B1,phosphatase activity toward phosphorylated C/EBPβ,[12],failed to protect C/EBPβ from dephosphorylation
